Article PMC11582173, “Synthesis, cytotoxicity, anti-inflammatory, anti-metastatic and anti-oxidant activities of novel chalcones incorporating 2-phenoxy-N-arylacetamide and thiophene moieties: induction of apoptosis in MCF7 and HEP2 cells” (Naunyn-Schmiedeberg's Archives of Pharmacology, 2024)
Values after ≈ are worked out from the molar mass of the structure shown.

Key:
[1] = test system: human laryngeal carcinoma (HEP2) cells; test: SRB cytotoxic assay, HEP2; format: cell-based; conditions: HEp-2, 48 h
Experimental: (§1) All the prepared compounds were screened at a concentration of 100 µg/mL against six different human cell lines: human laryngeal carcinoma (HEP2), human colorectal carcinoma (HCT116), human breast carcinoma (MCF7), human Lung carcinoma (A549), human liver carcinoma (HEPG2), and normal African Green monkey kidney cell line (VERO). Doxorubicin was used as a positive control for comparison purposes.
(§2) The human laryngeal carcinoma (HEP2), colorectal carcinoma (HCT116), breast carcinoma (MCF7), Lung carcinoma (A549), liver carcinoma (HEPG2), and normal African Green monkey kidney cell line (VERO) were purchased from American Tissue Culture Collection (Rockville, MD, USA). The cells were treated for 48 h with a single dose (100 µg/mL) of all the tested chalcones. […] In brief, the cells were seeded in a 96-well microtiter plate at a concentration of 5×10^3 cells/well in 100 µL fresh RPMI-1640 medium and left to attach to the plates for 24 h. Then, cells were incubated with 100 μL of different concentrations (50, 25, 12.5, 6.25, and 0.0 µg/mL) of 5c in triplicate at 37 °C for 48 h. After that, the cells were fixed with 10 µL cold 100% Trichloroacetic acid (TCA) for 1h at 4 °C. The wells were then washed 1 time with distilled water using (automatic Tecan washer, Germany) and stained for 30 min at room temperature with 50 µL 0.4% SRB dissolved in 1% acetic acid. The plates were air-dried and the dye was solubilized with 100 µl/well of 1M tris base (pH 10.5) for 5 min. The optical density (O.D.) of each well was measured spectrophotometrically at 570 nm with an ELISA microplate reader (Sunrise Tecan reader, Germany) with automatic shaking for 30 seconds before reading. The mean background absorbance was subtracted automatically and mean values for each drug concentration were calculated. The percentage of cell survival was calculated as follows: Survival fraction= O.D. (treated cells)/ O.D. (control cells) (Bhat et al. [2023]).

IL-6 gene = test: Real-time PCR, IL-6 gene expression; format: cell-based, human; conditions: relative to untreated control (1)
Experimental: (§3) The expression level of the following six genes (Ki-67, Survivin, Interleukin-1 beta (IL-1B), Interleukin-6 (IL-6), Cyclooxygenase-2 (COX-2) and protein kinase B (AKT1)) was determined in MCF7 and HEP2 treated with the IC50 of compound 5c. The untreated cells were used as a negative control for comparison purposes. […] Ki-67 is a popular proliferation marker for human tumor cells. […] Survivin is an inhibitor of apoptotic protein (IAP) family member, which is essential for cell division. The lowering of the expression of survivin inhibited tumor development, triggered apoptosis, and made tumor cells more susceptible to radiation and chemotherapy (Albadari and Li [2023]). […] IL-1B is a pleiotropic mediator of inflammation, which is produced in response to a variety of stressors (Aarreberg et al. [2019]). […] IL-6 is a pro-inflammatory cytokine that plays a significant role in the proliferation and differentiation of human cells. It promotes the production of numerous proteins involved in acute inflammation (Uciechowski and Dempke [2020]). […]
(§4) The expression level of the following six genes (Ki-67, survivin, AKT1, IL-6, COX2, and IL-1B) was examined using real-time polymerase chain reaction (qPCR) (Mohamed et al. [2023a]). […] The cycle threshold (Ct) was determined automatically. […]

[2] = test system: human Lung carcinoma (A549) cells; test: SRB cytotoxic assay, A549; format: cell-based; conditions: single dose 100 µg/mL, 48 h, read-out: %Inhibition at100 µg/mL A549
Experimental: as §1, §2

KI-67 gene = test: Real-time PCR, KI-67 gene expression; format: cell-based, human; conditions: relative to untreated control (1), normalized to GAPDH
Experimental: as §3, §4

[3] = HEP2 cells treated with IC50 of 5c
[4] = MCF7 cells treated with IC50 of 5c

Compound: COc1ccc(NC(=O)COc2ccc(C=CC(=O)c3cccs3)cc2)cc1 [Compound 5c, N-(4-Methoxyphenyl)-2-(4-(3-oxo-3-(thiophen-2-yl)prop-1-en-1-yl)phenoxy)acetamide]
- IC50 [1]: 12 µg/mL (≈ 30.5 µM)
- inhibition at 100 µg/mL ([1]; single dose 100 µg/mL, read-out: %Inhibition at100 µg/mL HEP2): > 75%
- IL-6 expression folding (IL-6 gene; [3]): 0.464±0.08 fold
- IL-6 expression folding (IL-6 gene; [4]): 0.814±0.079 fold
- inhibition at 100 µg/mL [2]: 65 ± 2.1%
- KI67 expression folding (KI-67 gene; [3]): 0.648±0.015 fold
- KI67 expression folding (KI-67 gene; [4]): 0.352±0.0172 fold
